Our source for the EC50, IC50 and AC50 values is ChEMBL document CHEMBL1201862, “PubChem BioAssay data set” (2004).

Calls of active or inactive are those of the source. Rule as the data show it, for most assays here: actives have a measured EC50 and inactives only a lower limit.

As a reminder, the IC50 is the concentration that inhibits the measured activity by half. Broadly, the AC50 is the concentration giving half of the maximal activity seen.

A short description of assay [1]: Luminescence Cell-Based Dose Response HTS to Identify Inhibitors of 5'UTR Stem-Loop Driven Prion Protein mRNA Translation in H4 Neuroglioblastoma Cells. [Related pubchem assays: 1827 (Project Summary), 1813 (Primary HTS)]. The format is functional.
A short description of assay [2]: alpha-synuclein stem-loop luciferase translation blockers – H4 neuroglioma cells, luminescence, confirmation (AID 1988). The format is functional, cell-based.
Assay [3] deals with T1, Heat shock factor protein 1 (Mus musculus, UniProt P38532).
T1 sequence (P38532 whole entry): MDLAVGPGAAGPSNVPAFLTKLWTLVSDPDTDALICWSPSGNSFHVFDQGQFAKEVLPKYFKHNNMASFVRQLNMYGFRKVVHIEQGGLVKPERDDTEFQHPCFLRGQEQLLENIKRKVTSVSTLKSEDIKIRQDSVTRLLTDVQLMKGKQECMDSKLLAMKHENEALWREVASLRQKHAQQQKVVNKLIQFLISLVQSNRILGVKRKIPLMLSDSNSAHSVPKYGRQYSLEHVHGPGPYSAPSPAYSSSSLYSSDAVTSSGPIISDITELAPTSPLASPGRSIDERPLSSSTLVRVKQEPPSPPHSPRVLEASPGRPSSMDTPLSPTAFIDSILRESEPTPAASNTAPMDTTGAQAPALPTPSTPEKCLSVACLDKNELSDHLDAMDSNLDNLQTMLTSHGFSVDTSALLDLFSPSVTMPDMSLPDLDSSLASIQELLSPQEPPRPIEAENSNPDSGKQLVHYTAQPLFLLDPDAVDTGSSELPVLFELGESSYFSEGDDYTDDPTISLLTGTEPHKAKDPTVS
As to the kind of experiment: decrease of HSF1-responsive luciferase luminescence – cell-based, NIH3T3, dose retest, confirmation (AID 2382).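 Also: NIH3T3 fibroblasts with HSF1-driven luciferase reporter stressed by proteasome inhibitor MG132; luminescence from HSF1-driven luciferase expression after 8 hours of MG132 stress.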 The format is functional.

Assay [4] is described as follows: luciferase reporter signal suppression in cells – H4 neuroglioma cells, luminescence, dose response (AID 1990). The format is functional, cell-based. On the technique in general: A reporter such as luciferase makes a cellular process visible.
The nature of assay [5]: NIH-3T3 fibroblast cytotoxicity, dose response, cytotoxicity control, cell-based, fluorescence, Alamar Blue, secondary assay (AID 2327).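 Also: NIH-3T3 mouse fibroblasts cultured with fluconazole at 8 µg/mL.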 The format is functional. On the technique in general: Alamar Blue is a resazurin reagent that responds to reducing activity.
A short description of assay [6]: fluconazole-exposed Candida albicans growth modulators – fluorescence, retest, confirmation (AID 2467). The format is functional, cell-based.
For the next assay, the target named is Genome polyprotein (dengue virus type 2, UniProt P29990). As to the kind of experiment: flavivirus cap methylation enzyme inhibition – biochemical, confirmation dose response, primary screen (AID 588689). The format is functional.
Sequence of Genome polyprotein (P29990 2492-3391 limits assumed): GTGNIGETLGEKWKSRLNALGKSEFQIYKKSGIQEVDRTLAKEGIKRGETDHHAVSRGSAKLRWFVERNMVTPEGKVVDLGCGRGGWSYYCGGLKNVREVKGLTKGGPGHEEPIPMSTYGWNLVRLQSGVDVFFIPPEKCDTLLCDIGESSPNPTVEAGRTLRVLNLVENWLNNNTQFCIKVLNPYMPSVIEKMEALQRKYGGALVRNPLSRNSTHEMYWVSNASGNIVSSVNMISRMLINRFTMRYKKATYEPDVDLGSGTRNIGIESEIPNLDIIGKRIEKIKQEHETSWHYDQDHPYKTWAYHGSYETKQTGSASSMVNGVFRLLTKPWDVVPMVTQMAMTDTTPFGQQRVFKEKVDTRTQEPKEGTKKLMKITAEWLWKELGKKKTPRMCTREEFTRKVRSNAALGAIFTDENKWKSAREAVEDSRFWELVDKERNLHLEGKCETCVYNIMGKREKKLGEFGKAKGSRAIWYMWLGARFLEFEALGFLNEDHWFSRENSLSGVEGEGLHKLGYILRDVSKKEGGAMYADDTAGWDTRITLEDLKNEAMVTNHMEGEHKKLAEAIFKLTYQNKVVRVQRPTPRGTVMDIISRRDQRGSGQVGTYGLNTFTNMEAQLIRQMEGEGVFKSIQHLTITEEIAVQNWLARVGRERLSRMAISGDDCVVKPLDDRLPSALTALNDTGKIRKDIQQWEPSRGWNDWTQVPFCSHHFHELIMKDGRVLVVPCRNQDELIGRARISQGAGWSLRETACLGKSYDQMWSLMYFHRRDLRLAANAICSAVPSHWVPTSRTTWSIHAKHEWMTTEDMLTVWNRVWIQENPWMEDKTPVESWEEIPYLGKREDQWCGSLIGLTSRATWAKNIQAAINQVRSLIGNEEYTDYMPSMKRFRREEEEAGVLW
The subject of the next assay is H9c2. The assay is described as follows: cells. The settings on record: Rattus norvegicus, H9c2, Myocardium. The format is functional, cell-based.
In assay [7] the target is T2, RNA-binding protein pos-1 (Caenorhabditis elegans, UniProt G5EF15).
T2 sequence (G5EF15 whole entry): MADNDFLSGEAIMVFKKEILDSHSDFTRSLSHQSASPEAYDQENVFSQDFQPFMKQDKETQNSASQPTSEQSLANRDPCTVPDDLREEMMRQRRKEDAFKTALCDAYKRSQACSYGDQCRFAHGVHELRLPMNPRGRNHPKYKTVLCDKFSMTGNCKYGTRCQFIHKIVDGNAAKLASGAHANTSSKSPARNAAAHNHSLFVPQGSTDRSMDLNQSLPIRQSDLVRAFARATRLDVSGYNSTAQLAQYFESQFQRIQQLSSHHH
As to the kind of experiment: disruptors of C. elegans POS-1 RNA interaction – biochemical, fluorescence polarization, dose response (AID 1964).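 Also: purified POS-1 fused to maltose binding protein made in E. coli; potency of compounds blocking POS-1 binding to fluorescent RNA.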

Assay [8] has as its target T3, Zinc finger protein mex-5 (Caenorhabditis elegans, UniProt Q9XUB2).
T3 sequence (Q9XUB2 whole entry): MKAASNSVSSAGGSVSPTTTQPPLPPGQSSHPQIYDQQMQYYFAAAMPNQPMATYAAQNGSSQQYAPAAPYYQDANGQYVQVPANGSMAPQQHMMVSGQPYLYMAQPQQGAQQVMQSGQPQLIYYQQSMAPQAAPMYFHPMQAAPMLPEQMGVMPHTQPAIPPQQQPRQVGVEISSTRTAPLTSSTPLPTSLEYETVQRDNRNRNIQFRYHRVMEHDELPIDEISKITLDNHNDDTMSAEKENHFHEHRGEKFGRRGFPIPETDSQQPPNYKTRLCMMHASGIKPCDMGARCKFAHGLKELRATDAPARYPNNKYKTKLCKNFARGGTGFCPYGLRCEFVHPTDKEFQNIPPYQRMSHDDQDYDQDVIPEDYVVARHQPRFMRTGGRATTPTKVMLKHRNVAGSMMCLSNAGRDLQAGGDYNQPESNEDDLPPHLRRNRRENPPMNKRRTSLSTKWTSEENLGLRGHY
The assay is described as follows: potency of MEX-5 RNA-binding blockers – biochemical, C. elegans, fluorescence polarization, dose response (AID 1960). For orientation: Fluorescence polarisation rises when a labelled molecule tumbles more slowly, as on binding a larger partner.

In the next assay the target is T4, Streptokinase A (Streptococcus pyogenes serotype M1, UniProt P10520).
T4 sequence (P10520 whole entry): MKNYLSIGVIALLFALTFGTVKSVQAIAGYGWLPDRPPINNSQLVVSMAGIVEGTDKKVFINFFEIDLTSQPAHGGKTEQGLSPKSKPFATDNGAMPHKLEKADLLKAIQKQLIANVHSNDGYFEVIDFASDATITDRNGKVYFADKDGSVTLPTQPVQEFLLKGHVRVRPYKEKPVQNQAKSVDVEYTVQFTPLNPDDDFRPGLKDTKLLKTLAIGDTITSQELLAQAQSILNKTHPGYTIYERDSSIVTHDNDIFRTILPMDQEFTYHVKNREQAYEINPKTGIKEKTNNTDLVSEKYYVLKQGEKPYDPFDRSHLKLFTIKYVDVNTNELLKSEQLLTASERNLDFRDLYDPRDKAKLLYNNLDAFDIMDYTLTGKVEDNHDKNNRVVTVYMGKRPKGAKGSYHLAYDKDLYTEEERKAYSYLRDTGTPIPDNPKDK
The assay is described as follows: viability-normalized secreted streptokinase activity reduction – plasminogen activation absorbance, OD405, dose response (AID 1914).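 Also: secreted streptokinase activity via plasminogen activation per viability signal from cell pellet.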 The format is functional, Streptococcus pyogenes M1 GAS.

In assay [9] the test system is Streptococcus sp. 'group A'. The assay is described as follows: Streptococcus pyogenes SK(-)GAS viability under kanamycin – luminescence, BacTiterGlo, confirmation, counter-screen for streptokinase expression inhibitor project, dose response (AID 1900). The format is functional, organism-based.
The next assay has as its system Streptococcus. The assay is described as follows: GAS UMAA2166 growth inhibition – luminescence, BacTiterGlo, counter-screen for streptokinase expression inhibitor project, dose response (AID 1915).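 Also: potency for reduction of bacterial viability or growth.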 The format is functional, organism-based.
For the next assay, the system named is INS1. As to the kind of experiment: INS-1E survival protection against cytokine death – cell-based, luminescence, retest, dose response (AID 449756).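 Also: cell death triggered by IL-1 beta plus TNF-alpha plus IFN-gamma mixture; protective hits raise ATP signal compared with cytokine alone wells.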 The format is functional. The note with it: Rattus norvegicus.
In assay [10] the target is T5, Corticotropin-releasing factor receptor 2/Corticotropin-releasing factor-binding protein (Homo sapiens, UniProt P24387+Q13324).
T5 sequence (Q13324 whole entry): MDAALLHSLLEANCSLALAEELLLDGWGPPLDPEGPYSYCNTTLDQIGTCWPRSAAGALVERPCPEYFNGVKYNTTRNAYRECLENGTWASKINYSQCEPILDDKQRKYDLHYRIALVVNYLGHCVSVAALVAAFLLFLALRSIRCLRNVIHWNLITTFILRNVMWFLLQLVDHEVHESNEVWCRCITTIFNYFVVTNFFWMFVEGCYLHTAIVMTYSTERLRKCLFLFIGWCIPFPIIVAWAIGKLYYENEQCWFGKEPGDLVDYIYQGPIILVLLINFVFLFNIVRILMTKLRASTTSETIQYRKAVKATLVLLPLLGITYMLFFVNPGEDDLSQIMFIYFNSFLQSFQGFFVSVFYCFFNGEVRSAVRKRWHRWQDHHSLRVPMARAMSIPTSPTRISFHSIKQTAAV
T5 sequence (P24387 whole entry): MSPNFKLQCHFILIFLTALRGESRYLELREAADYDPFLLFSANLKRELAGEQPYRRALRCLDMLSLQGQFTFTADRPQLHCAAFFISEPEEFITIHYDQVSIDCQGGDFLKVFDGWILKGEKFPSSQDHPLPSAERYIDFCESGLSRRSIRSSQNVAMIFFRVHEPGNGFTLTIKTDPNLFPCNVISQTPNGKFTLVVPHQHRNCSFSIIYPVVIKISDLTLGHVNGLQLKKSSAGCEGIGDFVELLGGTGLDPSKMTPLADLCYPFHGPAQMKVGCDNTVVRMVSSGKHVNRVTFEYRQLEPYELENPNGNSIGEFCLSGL
As to the kind of experiment: activators of CRF receptor 2 with binding protein – uHTS hits, confirmation (AID 602473). The format is functional. The settings on record: read-out: EC50_Mean.

The nature of assay [11]: reduction of Shn3 3'UTR-driven luciferase in osteoblasts – cell-based, Clone20 osteoblasts, firefly luciferase, cherry-picked, dose response (AID 624132).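 Also: firefly luciferase luminescence from reporter carrying the Shn3 3'UTR in osteoblasts.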 The format is functional.

In the case of `c1ccc(Oc2cccc(OCCn3cncn3)c2)cc1`, the EC50 in assay [1] is recorded as > 120 µM (not active); in assay [2] it was > 120 µM (not active); in assay [3] it was > 195 µM (not active); in [4] it was > 120 µM (not active). Consider `CC(C)Cc1ccc(CN2CCCC(NC(=O)CCN3CCCO3)C2)cc1` (configuration not stated), for which the EC50 in assay [5] was > 160 µM (inconclusive); in [6], > 38 µM (not active). As for `Cc1ccc(S(=O)(=O)NN2C(=O)/C(=C/c3ccc(C(=O)O)cc3)SC2=S)cc1`, the IC50 at Genome polyprotein is 64.9 µM (active). With `COc1cc(NC(=O)c2c(OC)cccc2OC)ccc1NC(=O)c1cc2ccccc2o1`, the IC50 with H9c2 was > 79 µM (inactive). Regarding `COc1cc(C2C(C#N)=C(N)OC3=C2C(=O)CC(C)(C)C3)c([N+](=O)[O-])cc1OC` (configuration not stated), the EC50 in assay [7] was 19.5 µM (active); in assay [8] it was 23 µM (inconclusive). For the same molecule, on Genome polyprotein, the half-inhibitory concentration (IC50) is > 100 µM (active).

In the case of `CC(Sc1ccc(Cl)cc1)C(=O)NCc1ccc2c(c1)OCO2` (configuration not stated), the figures for the EC50 in assay [5] and in assay [6] were > 150 µM (inactive) and 2.94 µM (active), respectively. As to `COc1cccc(OC)c1C(=O)Nc1cc(C)nn1-c1nc2ccccc2[nH]1`, the EC50 on Streptokinase A was > 150 µM (not active); in assay [9], 15.5 µM (active); in the assay with Streptococcus, > 150 µM (not active). The IC50 in the assay with H9c2 was > 79 µM (inactive). `COc1cc(NC(=O)c2ccco2)c(C(=O)OCC(=O)c2c[nH]c3ccccc23)cc1OC`: the IC50 with H9c2 was > 79 µM (inactive).

`CCC1(CC)NC(=O)N(CC(=O)OCC(=O)Nc2ccccc2[N+](=O)[O-])C1=O`: in the assay on H9c2, the IC50 was 11.9 µM (active). Take `O=C(Cn1[nH]c(=O)c2ccccc2c1=O)NCC1COc2ccccc2O1` (configuration not stated): in the assay on H9c2, the IC50 is 48.7 µM (inactive). Consider `COc1ccc(-n2cccc2/C=C2\C(=N)N3N=C(C(C)C)SC3=NC2=O)cc1`, for which the EC50 in assay [5] is > 150 µM (inactive); in assay [6], > 38 µM (not active).

As for `CC(C)C[C@H](NC(=O)c1[nH]cnc1C(=O)N[C@@H](CC(C)C)C(=O)OC(C)(C)C)C(=O)OCc1ccccc1`, in the assay on INS1, the AC50 was 11.8 µM (active). Also, the EC50 in assay [1] was 15.7 µM (active); in assay [2], 8.51 µM (active); in assay [9] it was 2.62 µM (active); in the assay on Streptococcus it was 6.41 µM (active); in [4], 21.1 µM (active). On to `COc1cccc(NC(=S)NC(=O)Cc2ccc(Cl)cc2)c1`, for which the EC50 in [10] is 5.76 µM (active). Still for that read-out and setting: as for `O=S(=O)(NC1CCCCC1N1CCN(c2ccccc2F)CC1)c1ccc(Cl)cc1` (configuration not stated), the figure is 6.24 µM (active). As for `CCc1nc2ccccc2c(C(=O)OCc2nc(O)c3ccccc3n2)c1C`, in the assay with H9c2, the IC50 was 5.84 µM (active). On the same count and under the same terms, the result for `O=C(Nc1ccccc1)c1cccc2c(-c3cccnc3)coc12` reads > 79 µM (inactive). As for `CCCCc1ccc(/N=C/C2=C(O)OC3(CCCCC3)OC2=O)cc1`, in assay [10], the EC50 was 5.81 µM (active). In the case of `O=C(N/N=C/c1ccccn1)c1cc(-c2ccncc2)nc2ccccc12`, the IC50 in the assay on H9c2 was > 79 µM (inactive). As for `O=C(N/N=C/c1ccc2c(c1)OCO2)c1cc(-c2ccccc2Cl)nc2ccccc12`, the EC50 in [5] is 94.7 µM (inconclusive); in [6], 0.684 µM (active). Consider `CC(=O)OCC(=O)[C@@]1(O)CC[C@H]2[C@@H]3CCC4=CC(=O)CC[C@]4(C)[C@H]3C(=O)C[C@@]21C` [CORTISONE ACETATE], for which the AC50 in assay [11] was 28.3 µM (active).
